Measurements from article PMC10901353, “Identification of a potent and selective LAPTc inhibitor by RapidFire-Mass Spectrometry, with antichagasic activity” (PLOS Neglected Tropical Diseases, 2024).
“And” between values parts separate entries of the source, which are not always exact repeats. Equal values may be shown once. “Also recorded” adds a separate entry of the source. Read-outs that look alike come from different tables or passages of the source.

Tests used:
[1] = Cytotoxicity assay on human HepG2 cells (resazurin); format: cell-based; settings: human, HepG2 cells, 72 h, two independent experiments; read-out: pCC50 (HepG2) (converted)
HepG2 cells = test: as above; format: cell-based
[2] = target: T1, LAPTc (acidic M17 leucyl-aminopeptidase from T. cruzi) (Trypanosoma cruzi, UniProt V5BWE3); test: High-throughput single point screening for LAPTc inhibitors by RapidFire-MS; format: biochemical; settings: read-out: Percent Inhibition
Description: (§1) This assay was previously described. The assay was performed in 384-well clear F-bottom polypropylene plates with a final reaction volume of 15 μL. The reaction mixture contained 7.5 μL LAPTc in 50 mM Tris-HCl, pH 7.5, 0.005% NP-40 and 7.5 μL LSTVIVR peptide substrate (Cambridge Research Biochemicals, Billingham, UK) in the same buffer was added to start the reaction. The reaction was performed at room temperature for 40 min and then stopped with 85 μL 1% formic acid containing 0.15 mg/mL STVIVR* internal standard (Cambridge Research Biochemicals, Billingham, UK).
Single point screening of a library of 3329 compounds was performed in 384-well clear plates (Greiner 781101) at room temperature. Test compounds (45 nL in DMSO) were transferred to assay plates by an ECHO 550 acoustic dispenser (Labcyte). LAPTc was tested at 3 nM with 150 μM (approximately the value of the apparent Michaelis-Menten constant -appKM- [16]) LSTVIVR peptide substrate in a 40 min reaction. Before addition of substrate, LAPTc was preincubated with 45 nL compounds or DMSO for 15 min. Compounds, dissolved in DMSO, were tested at 30 μM. Controls without compound (the same volume of DMSO, 0% inhibitory effect) and without enzyme and compound (100% inhibitory effect) were prepared. The experiment was performed without replicates. The remaining experimental conditions were maintained as previously described. Data were processed and analysed through ActivityBase XE (IDBS). The selection criterion for hits in this single point screen was percent inhibition larger than the mean plus three standard deviations. All primary screening data are available in ChEMBL (see Data Availability statement).

LAPTc = LAPTc (Trypanosoma cruzi, UniProt V5BWE3); test: Mode of inhibition studies by RapidFire-MS; format: biochemical
Description: Five concentrations of the LSTVIVR peptide substrate (100–1600 μM range) were tested in the presence of 3 nM LAPTc for 40 min. For each substrate concentration, compound 4 was tested at 0, 0.1 and 0.2 μM. For each substrate and compound 4 concentration, a negative control without enzyme was used. Before addition of substrate, LAPTc was preincubated with compound 4 for 15 min. Other experimental conditions were as previously described. Ki was calculated by fitting the Morrison equation to the experimental data. Binding energy (ΔGb) was calculated from Ki according to the equation ΔG = -RTlnKi.

[3] = tested on: intracellular T. cruzi amastigotes; test: T. cruzi intracellular assay (high-content imaging, infected Vero cells); format: cell-based, Trypanosoma cruzi; design: Max Effect (T. cruzi): unit not given here
Description: T. cruzi parasite, TcI strain Silvio X10/7 subclone A1 [34] was maintained in culture as previously described. Parasites were maintained as amastigotes by passaging on a weekly basis in Vero cells. Culture maintenance infections were carried out at an MOI (multiplicity of infection) of 1.5.
(§2) This assay was performed as described with the only modification that treatment was 96 h instead of 72 h. Briefly, Vero cells were infected overnight with tissue culture derived T. cruzi trypomastigotes in T225 tissue culture flasks (MOI 5). Any remaining free trypomastigotes were washed away with serum free MEM and the infected Vero cells were harvested by trypsinisation. Compounds (250 nL in DMSO) were dispensed using LabCyte ECHO (Beckman Coulter Life Sciences, USA) into each well of Corning black flat bottomed 384-well plates (Corning, USA). […] The infected Vero cells were then plated into the plates containing the compounds, at 4,000 cells per well in MEM media with 1% FCS. After 96 h incubation at 37°C in presence of 5% CO2, the plates were fixed with 4% formaldehyde for 20 min at room temperature and stained with 5 μg/mL Hoechst 33342. The plates were imaged on a Perkin Elmer Operetta high-content imaging system using a 20× objective. Images were analyzed using the Columbus system (Perkin Elmer). The algorithm first identified the Vero nuclei followed by demarcation of the cytoplasm and identification of intracellular amastigotes. This algorithm reported percent infected Vero cell and total number of Vero cells. All potency determinations were carried out in at least three independent replicates and are reported as pEC50 +/- standard deviation. pEC50 = -log(EC50[M]).

[4] = Cytotoxicity against infected Vero host cells in T. cruzi intracellular assay; format: cell-based, African green monkey; design: Max Effect (Vero): unit not given here; settings: African green monkey, Vero cells infected with T. cruzi; infected Vero host cells, 96 h; read-out: pCC50 (Vero) +/- StDev (converted)
Description: (§3) Briefly, these cells were maintained at 37°C and 5% CO2 in MEM supplemented with 10% FCS, sub-culturing every 2–3 days at a ratio of 1:5 after 5 min treatment with Trypsin-EDTA (Gibco).
as §2, with “After 96 h incubation at 37°C in presence of 5% CO2, the plates were fixed with 4% formaldehyde for 20 min at room temperature and stained with 5 μg/mL Hoechst 33342.” left out

Vero cells = test: as above; format: cell-based, African green monkey; design: Max Effect (Vero): unit not given here
Description: as §3
as §2, with “After 96 h incubation at 37°C in presence of 5% CO2, the plates were fixed with 4% formaldehyde for 20 min at room temperature and stained with 5 μg/mL Hoechst 33342.” left out

[5] = target: T1, LAPTc (acidic M17 leucyl-aminopeptidase from T. cruzi); test: Dose-response studies for LAPTc inhibition by RapidFire-MS; format: biochemical
Description: as §1
To generate half-maximum inhibitory concentration (IC50) data for LAPTc, 10-point dose-response curves with 100 μM as highest concentration and 1:2 dilution in DMSO (0.195–100 μM range) were prepared in 384 well plates. All other experimental conditions were as described above. All IC50 curve fitting was performed by four-parameter logistic dose-response curve fit using ActivityBase XE (IDBS). At least three replicates were generated for each hit compound.

human LAP3 = target: T2, human LAP3 (Homo sapiens, UniProt P28838); test: Dose-response studies for human LAP3 inhibition by RapidFire-MS; format: biochemical
T2 construct: purchased Assay Genie, Ireland
Description: Human LAP3 enzyme (Assay Genie, Ireland) was tested at 150 nM with 600 μM (~1 appKM) LSTVIVR peptide substrate and 1 mM ZnCl2 in a 180 min reaction. All other experimental conditions were as described above for dose-response assays with LAPTc.

[6] = Replicate data generation, individual replicates

LAPTc, sequence (V5BWE3 entry or part of it): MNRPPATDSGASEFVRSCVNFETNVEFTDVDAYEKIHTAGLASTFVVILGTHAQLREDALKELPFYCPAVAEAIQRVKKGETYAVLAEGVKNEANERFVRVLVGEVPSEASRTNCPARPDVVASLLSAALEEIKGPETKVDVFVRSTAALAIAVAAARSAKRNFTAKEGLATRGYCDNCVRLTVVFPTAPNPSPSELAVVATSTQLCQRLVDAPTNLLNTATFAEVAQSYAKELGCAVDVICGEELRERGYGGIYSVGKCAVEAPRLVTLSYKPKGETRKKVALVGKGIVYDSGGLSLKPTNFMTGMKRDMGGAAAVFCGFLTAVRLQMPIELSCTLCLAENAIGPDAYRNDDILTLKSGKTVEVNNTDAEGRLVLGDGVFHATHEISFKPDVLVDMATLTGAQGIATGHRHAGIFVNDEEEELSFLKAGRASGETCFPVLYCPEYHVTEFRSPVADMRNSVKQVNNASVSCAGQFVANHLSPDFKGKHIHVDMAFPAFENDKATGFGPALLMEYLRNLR
T1 sequence (V5BWE3 entry or part of it): as above
T2 sequence (P28838 whole entry): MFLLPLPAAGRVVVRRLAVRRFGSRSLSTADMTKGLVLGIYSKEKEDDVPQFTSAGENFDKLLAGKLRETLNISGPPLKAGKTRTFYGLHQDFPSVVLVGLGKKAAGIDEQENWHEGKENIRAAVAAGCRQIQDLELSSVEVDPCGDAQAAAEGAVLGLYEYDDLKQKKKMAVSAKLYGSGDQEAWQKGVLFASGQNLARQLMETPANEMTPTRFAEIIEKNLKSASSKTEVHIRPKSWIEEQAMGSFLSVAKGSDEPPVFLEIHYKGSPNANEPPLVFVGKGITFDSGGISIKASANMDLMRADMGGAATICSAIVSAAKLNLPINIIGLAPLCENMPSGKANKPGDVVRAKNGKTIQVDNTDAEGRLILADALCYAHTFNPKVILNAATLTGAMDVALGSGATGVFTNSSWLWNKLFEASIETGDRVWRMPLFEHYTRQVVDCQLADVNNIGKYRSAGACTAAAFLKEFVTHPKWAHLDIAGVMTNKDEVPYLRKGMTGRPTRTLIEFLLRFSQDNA

Question: With `COc1ccc2oc(C(=O)Nc3nc(-c4ccccn4)cs3)c(C)c2c1` [Compound 4] as the molecule, how does the CC50 at 72 h [1] read?
Answer: > 100 µM

Question: What about the “Selectivity window based on the HepG2 data” value (HepG2 cells; T. cruzi vs HepG2) of the same molecule?
Answer: > 166 fold

Question: And the “Max Effect (HepG2)” value (HepG2 cells; individual replicates)?
Answer: 38 and 49

Question: And the “pEC50 (HepG2)” value (HepG2 cells; individual replicates)?
Answer: < 4.0

Question: What about the “toxicity against HepG2 cells (in words)” value (HepG2 cells; uninfected HepG2 cells) of the same molecule?
Answer: no toxicity was observed; also recorded: some toxicity was seen for compound 4 at 33 μM and 100 μM

Question: What about the inhibition at 30 µM [2] of the same molecule?
Answer: 59%

Question: What about the Ki (LAPTc) of the same molecule?
Answer: 0.27 µM

Question: And the “ligand efficiency (LE)” value (LAPTc; LE = -RT ln Ki / number of non-hydrogen atoms)?
Answer: 0.33

Question: And the “experimental binding energy (ΔGb)” value (LAPTc; calculated from Ki, ΔG = -RTlnKi)?
Answer: -37.4 kJ/mol

Question: What about the mode of inhibition (LAPTc; with respect to substrate peptide LSTVIVR, Lineweaver-Burk) of the same molecule?
Answer: competitive inhibitor

Question: What about the EC50 ([3]; Trypanosoma cruzi, Vero, 96 h, four independent experiments, read-out: pEC50 (T. cruzi) +/- StDev (converted)) of the same molecule?
Answer: 0.676 µM

Question: What about the EC50 ([3]; Trypanosoma cruzi, Vero, 96 h, read-out: EC50 (T. cruzi amastigotes)) of the same molecule?
Answer: 0.7 µM

Question: What about the Emax ([3]; Trypanosoma cruzi, Vero, individual replicates, read-out: Max Effect (T. cruzi)) of the same molecule?
Answer: 95%

Question: What about the EC50 ([3]; Trypanosoma cruzi, Vero, individual replicates, read-out: pEC50 (T. cruzi) (converted)) of the same molecule?
Answer: 0.631 µM

Question: What about the “Max Effect (T. cruzi)” value ([3]; individual replicates) of the same molecule?
Answer: 92 and 96 and 100

Question: And the “pEC50 (T. cruzi)” value ([3]; individual replicates)?
Answer: 6.1

Question: And the CC50 at 96 h [4]?
Answer: 2.24 µM

Question: And the “Selectivity index (fold window Tc/Vero)” value (Vero cells)?
Answer: 3.3 fold

Question: What about the “Max Effect (Vero)” value (Vero cells; individual replicates) of the same molecule?
Answer: 85 and 83 and 79

Question: What about the “pEC50 (Vero)” value (Vero cells; individual replicates) of the same molecule?
Answer: 5.4 and 6.0 and 5.5 and 5.8

Question: And the IC50 ([5]; IC50 (LAPTc))?
Answer: 0.44 µM

Question: And the “Hill Slope” value ([5]; Initial hit confirmation, single replicate)?
Answer: 2.5

Question: What about the “Hill Slope” value [5, 6] of the same molecule?
Answer: 2.8 and 2.1 and 2.3

Question: What about the “Maximum Effect” value [5, 6] of the same molecule?
Answer: 87% and 81%

Question: What about the IC50 ([5]; pIC50 +/- StDev (LAPTc), average of four independent replicates) of the same molecule?
Answer: 0.437 µM

Question: What about the IC50 ([5]; pIC50, Initial hit confirmation, single replicate) of the same molecule?
Answer: 0.2 µM

Question: What about the IC50 ([5]; pIC50, Replicate data generation, individual replicates) of the same molecule?
Answer: 0.794 µM and 0.501 µM

Question: And the Emax ([5]; read-out: Maximum Effect, Initial hit confirmation, single replicate)?
Answer: 96%

Question: What about the Emax ([5]; read-out: Maximum Effect, Replicate data generation, individual replicates) of the same molecule?
Answer: 83%

Question: What about the “Hit Confirmation” value ([5]; whether primary screen hit confirmed in potency experiment) of the same molecule?
Answer: confirmed

Question: And the IC50 (human LAP3)?
Answer: > 100 µM
